# Data reported in US20230015691A1, “PROPHYLACTIC OR THERAPEUTIC AGENT FOR NON-ALCOHOLIC STEATOHEPATITIS IN HUMANS” (MITSUBISHI TANABE PHARMA CORPORATION, priority 2019, published 2023).
# Legend:
# [1] = test system: serum hyaluronic acid (HA); assay: Change in serum hyaluronic acid level (Chemilumi Hyaluronic Acid); format: in vivo, human; conditions: for Change from baseline/Hyaluronic Acid, LS Mean: serum, NASH patients, 10 mg once daily
# Procedure: (§1) [Test Protocol] • Number of cases to be analyzed: 47 cases (placebo administration group: 23 cases; MT-3995 administration group: 24 cases) • The subjects were selected according to the following criteria.
# (§2) • Pre-observation period (number of weeks): 10 weeks • Administration period (number of weeks): 72 weeks • Post-observation period (number of weeks): 8 weeks • Dosage and administration: MT-3995 administration group=once daily, 10 mg; placebo group=once-daily administration
# Table 3 and FIG. 2 show the average amount of change in the serum hyaluronic acid level after the assignment. For measurement of the serum hyaluronic acid level, serum was prepared from blood collected from each patient on the day of the visit, according to a conventional method. The prepared serum was subjected to a test. For the measurement, Chemilumi Hyaluronic Acid (Siemens Healthcare Diagnostics K. K.) was used.
# [2] = test system: plasma-soluble Vascular Cell Adhesion Molecule-1 (sVCAM); assay: Change in plasma sVCAM-1 level (Human sVCAM-1/CD106 Quantikine ELISA Kit); format: in vivo; conditions: for Change from baseline/sVCAM-1, Mean: plasma, 10 mg once daily
# Procedure: as §1, §2
# Table 6-1 and FIG. 5-1 show the average amount of change in the plasma-soluble Vascular Cell Adhesion Molecule-1 (sVCAM) after the assignment. For measurement of the plasma sVCAM level, plasma was prepared from blood collected from each patient, according to a conventional method. The prepared plasma was subjected to a test. For the measurement, a Human sVCAM-1/CD106 Quantikine ELISA Kit (R&D Systems, Inc.) was used.
# A stratified analysis was carried out for the subjects based on the presence or absence of complication with diabetes. DM represents the “group of patients complicated with diabetes”. A higher effect was found in the group of patients complicated with diabetes.
# Further, a stratified analysis was carried out for the subjects based on the presence or absence of complication with hypertension. HP represents the “group of patients complicated with hypertension”. A higher effect was found in the group of patients complicated with hypertension.
# [3] = Body weight change in NASH patients (clinical trial, 72 weeks); format: in vivo, human; conditions: 10 mg once daily; for Change from baseline/Weight, Mean (SD): NASH patients
# Procedure: as §1
# Kleiner fibrosis classification: Stage 2 or Stage 3
# as §2
# Table 2 and FIG. 1 show the average amount of change in the body weight after the assignment, in the placebo group and the MT-3995 group. The body weight was measured at the time of the visit.
smiles,measurement,setting,value
CC1(C)Oc2cc(NS(C)(=O)=O)ccc2N(c2ccc(F)cc2)C1=O [MT-3995],Serum hyaluronic acid level versus placebo group,"[1]; Weeks 24, 48, and 72 after the beginning of the administration",significantly lower than the level in the placebo group
same,"Change from baseline/Hyaluronic Acid, LS Mean",[1]; Week 12,-31.87 ng/mL
same,"Change from baseline/Hyaluronic Acid, LS Mean",[1]; Week 24,-39.02 ng/mL
same,"Change from baseline/Hyaluronic Acid, LS Mean",[1]; Week 48,-47.23 ng/mL
same,"Change from baseline/Hyaluronic Acid, LS Mean",[1]; Week 72,-32.02 ng/mL
same,Serum hyaluronic acid level versus beginning of the administration,[1]; throughout the treatment period,lower than the level observed at the beginning of the administration
same,Plasma sVCAM value versus placebo group,"[2]; Week 24, Week 48, and Week 72",lower than the value in the placebo group
same,Plasma sVCAM values versus beginning of the administration,[2]; from Week 24 after the beginning of the administration,lower plasma sVCAM values
same,"Change from baseline/sVCAM-1, Mean","[2]; DM (patients complicated with diabetes), Week 12",-6.58 ng/mL
same,"Change from baseline/sVCAM-1, Mean","[2]; DM (patients complicated with diabetes), Week 24",-47.08 ng/mL
same,"Change from baseline/sVCAM-1, Mean","[2]; DM (patients complicated with diabetes), Week 48",-62.73 ng/mL
same,"Change from baseline/sVCAM-1, Mean","[2]; DM (patients complicated with diabetes), Week 72",-112.27 ng/mL
same,"Change from baseline/sVCAM-1, Mean","[2]; HP (patients complicated with hypertension), Week 12",5.69 ng/mL
same,"Change from baseline/sVCAM-1, Mean","[2]; HP (patients complicated with hypertension), Week 24",-44.06 ng/mL
same,"Change from baseline/sVCAM-1, Mean","[2]; HP (patients complicated with hypertension), Week 48",-70.29 ng/mL
same,"Change from baseline/sVCAM-1, Mean","[2]; HP (patients complicated with hypertension), Week 72",-89.57 ng/mL
same,"Change from baseline/sVCAM-1, Mean","[2]; all NASH patients, Week 12",13.8 ng/mL
same,"Change from baseline/sVCAM-1, Mean","[2]; all NASH patients, Week 24",-43.8 ng/mL
same,"Change from baseline/sVCAM-1, Mean","[2]; all NASH patients, Week 48",-44.7 ng/mL
same,"Change from baseline/sVCAM-1, Mean","[2]; all NASH patients, Week 72",-74.7 ng/mL
same,"Change from baseline/sVCAM-1, Mean","[2]; non-DM patients, Week 12",34.25 ng/mL
same,"Change from baseline/sVCAM-1, Mean","[2]; non-DM patients, Week 24",-40.58 ng/mL
same,"Change from baseline/sVCAM-1, Mean","[2]; non-DM patients, Week 48",-26.64 ng/mL
same,"Change from baseline/sVCAM-1, Mean","[2]; non-DM patients, Week 72",-37.18 ng/mL
same,"Change from baseline/sVCAM-1, Mean","[2]; non-HP patients, Week 12",30.13 ng/mL
same,"Change from baseline/sVCAM-1, Mean","[2]; non-HP patients, Week 24",-43.38 ng/mL
same,"Change from baseline/sVCAM-1, Mean","[2]; non-HP patients, Week 48",0.13 ng/mL
same,"Change from baseline/sVCAM-1, Mean","[2]; non-HP patients, Week 72",-48.75 ng/mL
same,Rate of body weight reduction versus placebo group,[3]; 72 weeks,higher in the MT-3995 administration group than in the placebo group
same,"Change from baseline/Weight, Mean (SD)",[3]; Week 12,−1.39 (1.55) kg
same,"Change from baseline/Weight, Mean (SD)",[3]; Week 24,−1.73 (2.09) kg
same,"Change from baseline/Weight, Mean (SD)",[3]; Week 36,−1.88 (2.99) kg
same,"Change from baseline/Weight, Mean (SD)",[3]; Week 48,−2.15 (3.23) kg
same,"Change from baseline/Weight, Mean (SD)",[3]; Week 60,−2.23 (3.25) kg
same,"Change from baseline/Weight, Mean (SD)",[3]; Week 72,−2.21 (3.10) kg
same,Body weight change,[3]; from the beginning of the administration,A decrease in the body weight was found
